# Experimental data reported in patent publication US11807627B2, “Morphic forms of complement factor D inhibitors” (priority 2018, dated 2023).
# How the values were obtained:
# Type in all cases: physicochemical
# [1] = Enabling form study: solubility from RT slurry in solvents (Table 2); settings: organic solvent or mixture, thermodynamic from solid
# Procedure: (§1) A solution of Compound 3 and solvent/solvent system of interest was prepared. Solids persisted in solution. The samples were placed onto a stir plate at ambient (RT) or elevated (ET) temperatures. The samples were monitored to ensure that solids persisted during the slurry process. The solids were collected via vacuum filtration and dried under ambient conditions.
# An enabling form study was also carried out (Table 2).
# [2] = Process for the formation of Form J: XRPD result after each step (Table 22)
# Procedure: A polymorph study was completed for Form J. The production of Form J was completed by temperature cycling amorphous Compound 3 in acetronitrile (Form B) with drying the material under ambient conditions for about 24 hours.
# [3] = Interconversion experiments: competitive slurries (Example 2, Table 6); settings: Forms A and G vs Form B, ethyl acetate, ambient and approximately 50° C.
# Procedure: as §1, with “conditions. […] At ambient temperature, Forms B and M are both present after almost a week of slurrying.” for “conditions.”
# [4] = Compression study (25 kN, 50 kN; Example 13)
# Procedure: A mixture of Form A ±Form B and Form B were compressed using a specac IR die press. A total of approximately 100 mg (50 mg A ±50 mg B and 100 mg B) were weighed into separate 2 mL glass vials. The solids were then placed into the IR dies and pressed under 25 kN and 50 kN for about 10-15 seconds. After pressing to 25 kN, material was removed from the dies and ground slightly. A sub-sample was taken and XRPD analysis was collected. Material was then placed back into the dies and pressed to 50 kN. After pressing to 50 kN, material was removed from the dies and ground slightly before collecting XRPD analysis. Both samples observed a small color change from white to off-white after being pressed to 25 kN. […] No single form was observed when compressing a mixture of Forms A and form B material, but a decrease in crystallinity was observed when exerting 50 kN on the mixture.
# [5] = Compression of Form A (2.5 KN, 5.0 KN); settings: initial and repeat
# Procedure: Compound 3 Form A material was compressed using a specac press. Approximately 125 mg of Compound 3 Form A was weighed into a 20 mL glass vial. The material was then transferred into an IR die and pressed to 2.5 KN for approx. 5 seconds. The resulting material was (ground lightly to break the disk that was returned and) analyzed by XRPD and PLM. The material was then placed back into the die and pressed to 5.0 KN (for approx. 5 seconds). The resulting material was ground lightly to break the disk that was returned and analyzed by XRPD and PLM. The procedure detail was repeated, using separate batches of solid for 2.5 KN and 5.0 KN experiments. XRPD analysis and PLM analysis was completed on the material returned after pressing. All samples returned Form A material by XRPD and consisted of small birefringent particles with no clear morphology by PLM (FIG. 35A-FIG. 35C).
# [6] = Hydration study in 2-propanol/water systems
# Procedure: A hydration study of Compound 3 Form A was conducted using 4 different aw 2-propanol/water solvent systems. Approximately 20 mg of Compound 3 Form A was weighed into four 2 mL glass vials. An appropriate volume of solvent system was added to the solids and samples were agitated for about 48 hours under ambient conditions. After 48 hours, solids were isolated using centrifuge filtration and analyzed by XRPD. […] (FIG. 32)
# [7] = Variable humidity XRPD (VH-XRPD); settings: between 0 and 90% RH
# Procedure: […] analysis was carried out on a Philips X'Pert Pro Multipurpose diffractometer equipped with a humidity chamber. The samples were scanned between 4 and 35.99°2θ using Cu K radiation (α1λ=1.54060 Å; α2=1.54443 Å; β=1.39225 Å; α1; α2 ratio=0.5) running in Bragg-Brentano geometry (step size 0.008°2θ) using 40 kV/40 mA generator settings. Table 10 details the humidity program used.
# Milling of Form A = settings: 2 min milling (5000 RPM); initial and repeat runs
# Procedure: Compound 3 Form A material was milled using a Precellys® Evolution SUPER Homogenizer. Approximately 50 mg of Compound 3 Form A was weighed into 2×plastic 2 mL bead mill vials and 5×2.4 […] metal beads were placed into each vial. Sample 1 was milled using the following: RPM=5000; Cycles=2×60 seconds; Pause=10 seconds (between cycles). Sample 2 was milled using the above method but 5×60 seconds cycles instead of2×60 seconds. After milling, a sub-sample was taken from each and analyzed by XRPD and PLM. The above procedure was repeated and the resulting samples were analyzed by XRPD and DSC analysis.
structure (smiles),measurement,setting,value
"CC(=O)c1nn(CC(=O)N2[C@H](C(=O)Nc3nc(Br)ccc3C)C[C@@]3(C)C[C@@H]23)c2ccc(-c3cnc(C)nc3)cc12 [Compound 3, (1R,3S,5R)-2-(2-(3-acetyl-5-(2-methylpyrimidin-5-yl)-1H-indazol-1-yl)acetyl)-N-(6-bromo-3-methylpyridin-2-yl)-5-methyl-2-azabicyclo[3.1.0]hexane-3-carboxamide]",solubility,"[1]; ethyl acetate, EtOAc",~14500 µg/mL
same,solubility,"[1]; isopropanol, IPA",~5600 µg/mL
same,solubility,[1]; MTBE,~1200 µg/mL
same,solubility,[1]; Toluene,~13600 µg/mL
same,XRPD result,[2]; Step 1: Lyophilization,Amorphous
same,XRPD result,[2]; Step 5: Re-slurry in 5 mL acetonitrile,Form J
same,XRPD result,[2]; Step 8: Re-slurry in 1.5 mL acetonitrile 18 hours,Form J
same,XRPD result,[2]; Step 11: Re-slurry 4 ml acetonitrile 18 hours,Form J
same,XRPD result,"[2]; Step 12: Air drying 2, 5 and 24 hours",Form J
same,XRPD result,[2]; Step 13: After 5 days storage under ambient conditions,Amorphous
same,XRPD result,[2]; Step 14: Re-slurry 4 ml acetonitrile 18 hours,Form J
same,XRPD result,[2]; Step 15: Isolation using Buchner funnel (10-15 seconds on filter bed),Amorphous
same,XRPD result,[2]; Step 16: Re-slurry 4 ml acetonitrile 4 hours,Form J
same,XRPD result,[2]; Step 17: Isolation using centrifuge filtration,Form J
same,XRPD result,[2]; Step 18: Ambient drying 18 hours,Form J
CC(=O)c1nn(CC(=O)N2[C@H](C(=O)Nc3nc(Br)ccc3C)C[C@@]3(C)C[C@@H]23)c2ccc(-c3cnc(C)nc3)cc12 [Form B],Relative stability in competitive slurry,[3],more stable form
same,Form change under compression (XRPD),[4]; 25 kN and 50 kN,did not change under pressure
same,XRPD Results,[4]; Pressure Exerted 25 kN,Form B
same,XRPD Results,[4]; Pressure Exerted 50 kN,Form B
CC(=O)c1nn(CC(=O)N2[C@H](C(=O)Nc3nc(Br)ccc3C)C[C@@]3(C)C[C@@H]23)c2ccc(-c3cnc(C)nc3)cc12 [Compound 3 Form A],Compression: XRPD,[5]; 2.5 KN,Form A
same,Compression: XRPD,[5]; 5.0 KN,Form A
same,Hydration study: XRPD results,"[6]; Water activity (aw) 0.354, 2-propanol/water, about 48 hours, ambient",Form A
same,Hydration study: XRPD results,[6]; Water activity (aw) 0.526,Form A
same,Hydration study: XRPD results,[6]; Water activity (aw) 0.704,Predominantly amorphous
same,Hydration study: XRPD results,[6]; Water activity (aw) 0.910,Predominantly amorphous
same,VH-XRPD: change in form with humidity,[7],no changes in form
same,Milling: XRPD,Milling of Form A,Amorphous
